What was measured:
Assay in all cases: relative viability (nuclei count vs DMSO), 5 days (fraction); higher = more cells survive
[1] = compound: C1CC(C1)(C(=O)O)C(=O)O.[NH2-].[NH2-].[Pt+2] [Carboplatin] + C[C@@H](Oc1cc(-c2cnn(C3CCNCC3)c2)cnc1N)c1c(Cl)ccc(F)c1Cl [Crizotinib] (partner 1 µM)
Procedure, shortened: (§1)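 Medians of duplicate plates are given as relative viability. That measure is the nuclei count in treated wells divided by the count in vehicle wells. Counts were taken on 4× images of lung cancer cell lines in 1536-well plates, 5 days after pin-tool dosing the day after seeding with one drug alone or a fixed anchor-drug dose plus five library-drug doses (not always all listed) in √10 steps.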

[2] = compound: NS(=O)(=O)OC[C@@H]1C[C@@H](n2ccc3c(N[C@H]4CCc5ccccc54)ncnc32)C[C@@H]1O [MLN4924] + C[C@]1(O)C[C@@H](c2nc(-c3ccc4ccc(-c5ccccc5)nc4c3)c3c(N)nccn32)C1 [Linsitinib] (partner 1 µM)
Procedure, shortened: as §1

[3] = compound: CC[C@H](C)N1C=C(C2=C(C=C(C=C21)C3=CN=C(C=C3)N4CCNCC4)C(=O)NCC5=C(C=C(NC5=O)C)C)C [GSK126] + CS(=O)(=O)CCNCc1ccc(-c2ccc3ncnc(Nc4ccc(OCc5cccc(F)c5)c(Cl)c4)c3c2)o1 [Lapatinib] (partner 2 µM)
Procedure, shortened: as §1

[4] = compound: NS(=O)(=O)OC[C@@H]1C[C@@H](n2ccc3c(N[C@H]4CCc5ccccc54)ncnc32)C[C@@H]1O [MLN4924] + Cc1cc(Nc2cc(N3CCN(C)CC3)nc(Sc3ccc(NC(=O)C4CC4)cc3)n2)n[nH]1 [Tozasertib] (partner 0.1 µM)
Procedure, shortened: as §1

Cell Line	relative viability ([1]; first compound 0.08 µM)	relative viability ([1]; first compound 0.8 µM)	relative viability ([1]; first compound 2.53 µM)	relative viability ([1]; first compound 8 µM)	relative viability ([2]; first compound 0.04 µM)	relative viability ([2]; first compound 0.1265 µM)	relative viability ([2]; first compound 0.4 µM)	relative viability ([2]; first compound 1.265 µM)	relative viability ([2]; first compound 4 µM)	relative viability ([3]; first compound 0.08 µM)	relative viability ([3]; first compound 0.8 µM)	relative viability ([3]; first compound 2.53 µM)	relative viability ([3]; first compound 8 µM)	relative viability ([4]; first compound 0.04 µM)	relative viability ([4]; first compound 0.1265 µM)	relative viability ([4]; first compound 0.4 µM)	relative viability ([4]; first compound 1.265 µM)	relative viability ([4]; first compound 4 µM)	relative viability ([1]; first compound 0.253 µM)	relative viability ([3]; first compound 0.253 µM)
LCLC-97TM1	0.338	0.271	0.288	0.312	0.191	0.23	0.156	0.103	0.131	1.22	1.11	1.66	0.841	0.222	0.158	0.172	0.121	0.112		
LK-2	0.196	0.242	0.233	0.228	0.497	0.46	0.289	0.198	0.203	0.947	0.876	0.916	0.673	0.175	0.182	0.189	0.209	0.174	0.224	0.952
LOU-NH91	0.74	0.714	0.735	0.725	1.01	1.14	0.961	0.561	0.472	0.812	0.755	0.882	0.871	0.641	0.689	0.502	0.336	0.342	0.731	0.77
LU99A	0.62	0.556	0.464	0.422	0.469	0.332	0.254	0.147	0.177	1.07	0.913	1	0.99	0.251	0.244	0.224	0.178	0.165	0.665	1
LXF-289	0.821	0.708	0.796	0.764	0.785	0.645	0.417	0.224	0.143	0.92	0.894	0.885	0.881	0.194	0.162	0.155	0.083	0.0804	0.839	0.84
NCI-H23	0.638	0.516	0.488	0.39	0.632	0.405	0.203	0.135	0.149	1.26	1.02	1.22	1.2	0.367	0.388	0.235	0.176	0.141	0.542	1.02
NCI-H322M	1.07	0.963	0.926	0.854	0.86	0.908	0.913	0.262	0.328	0.616	0.604	0.654	0.66	0.479	0.537	0.434	0.26	0.325	0.964	0.638
NCI-H358	0.596	0.629	0.588	0.525	0.918	1.06	0.304	0.183	0.181	0.487	0.525	0.454	0.51	0.108	0.0992	0.0886	0.0878	0.0989	0.744	0.461

— the supplement of paper PMC10307832
